# Data as given in PubChem BioAssay (NCI).
#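 In this assay, cells in 96-well plates receive the compound at five concentrations for 48 hours. Endpoints are linearly interpolated between the surrounding concentrations. TGI denotes the concentration required for complete inhibition of growth.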
# Key:
# Assay in all cases: DTP human tumour cell line panel, 48 h
# [1] = tested on: PC-3 prostate
# [2] = tested on: NCI-H23 lung
# [3] = tested on: OVCAR-3 ovarian
# [4] = tested on: IGROV1 ovarian
# [5] = tested on: HCC-2998 colon
# [6] = tested on: SK-MEL-2 melanoma
# [7] = tested on: SNB-19 CNS
# [8] = tested on: RXF 393 renal
# [9] = tested on: SNB-75 CNS
# [10] = tested on: LOX IMVI melanoma
smiles,measurement,setting,value
CCOC(=O)/C(C#N)=C/N(CC)/N=C/c1ccccc1,TGI,[1],> 100 µM
same,TGI,[2],> 100 µM
same,TGI,[3],> 100 µM
same,TGI,[4],> 100 µM
same,TGI,[5],> 100 µM
same,TGI,[6],> 100 µM
same,TGI,[7],> 100 µM
same,TGI,[8],> 100 µM
same,TGI,[9],> 100 µM
CCCCCCOP(=O)(OCCCCCC)OC(C(=O)OC)C(F)(F)F (stereo not drawn),TGI,[10],> 100 µM
same,TGI,[1],> 100 µM
same,TGI,[2],> 100 µM
same,TGI,[3],> 100 µM
same,TGI,[4],> 100 µM
same,TGI,[5],> 100 µM
same,TGI,[6],> 100 µM
same,TGI,[7],> 100 µM
same,TGI,[9],> 100 µM
CO[P@]1(=O)O[C@@H](c2ccccc2)[C@H](O)[C@@]1(O)c1ccccc1,TGI,[10],> 100 µM
same,TGI,[1],> 100 µM
same,TGI,[2],> 100 µM
same,TGI,[3],> 100 µM
same,TGI,[4],> 100 µM
same,TGI,[6],> 100 µM
same,TGI,[7],> 100 µM
same,TGI,[8],> 100 µM
same,TGI,[9],> 100 µM
O=[N+]([O-])/C=C/c1cn(CCCCCn2cc(/C=C/[N+](=O)[O-])c3ccccc32)c2ccccc12,TGI,[10],1.51 µM
same,TGI,[1],15 µM
same,TGI,[2],16 µM
same,TGI,[3],4.66 µM
same,TGI,[4],5.81 µM
same,TGI,[5],2.8 µM
same,TGI,[6],38.1 µM
same,TGI,[7],24.2 µM
same,TGI,[8],1.35 µM
CCOC(=O)C1CCCCc2sc(N)c(C#N)c21 (stereo not drawn),TGI,[1],> 100 µM
same,TGI,[2],> 100 µM
same,TGI,[4],> 100 µM
same,TGI,[5],> 100 µM
same,TGI,[6],> 100 µM
same,TGI,[7],> 100 µM
same,TGI,[8],> 100 µM
same,TGI,[9],> 100 µM
COC(=O)c1ccc(/C=C2\CCc3ccccc3C2=O)cc1,TGI,[10],> 100 µM
same,TGI,[1],> 100 µM
same,TGI,[2],> 100 µM
same,TGI,[3],> 100 µM
same,TGI,[4],> 100 µM
same,TGI,[5],> 100 µM
same,TGI,[7],> 100 µM
same,TGI,[8],> 100 µM
same,TGI,[9],> 100 µM
O=S1(=O)OCCOS(=O)(=O)C1Cc1nc2ccccc2[nH]1,TGI,[10],38.1 µM
same,TGI,[1],73.4 µM
same,TGI,[2],> 100 µM
same,TGI,[3],> 100 µM
same,TGI,[5],> 100 µM
same,TGI,[6],> 100 µM
same,TGI,[7],> 100 µM
COc1ccc(-c2nc(-c3cnccn3)n(C3OC(CO)C(O)C(O)C3O)n2)cc1 (stereo not drawn),TGI,[10],> 100 µM
same,TGI,[1],> 100 µM
same,TGI,[2],> 100 µM
same,TGI,[3],> 100 µM
same,TGI,[4],> 100 µM
same,TGI,[5],> 100 µM
same,TGI,[7],> 100 µM
same,TGI,[8],> 100 µM
same,TGI,[9],> 100 µM
CC(=O)c1ccc(NC(=O)CSc2nc(C)nc3c2sc(=S)n3-c2ccccc2)cc1,TGI,[10],> 3.16 µM
same,TGI,[2],> 3.16 µM
same,TGI,[3],> 3.16 µM
same,TGI,[4],> 3.16 µM
same,TGI,[5],> 3.16 µM
same,TGI,[6],> 3.16 µM
same,TGI,[7],> 3.16 µM
same,TGI,[8],> 3.16 µM
same,TGI,[9],> 3.16 µM
CC12CC(c3ccccc3O1)C(C(=O)Nc1cccc(F)c1)C(=O)N2 (stereo not drawn),TGI,[10],> 100 µM
same,TGI,[1],> 100 µM
same,TGI,[2],79.3 µM
same,TGI,[3],> 100 µM
same,TGI,[4],> 100 µM
same,TGI,[5],> 100 µM
same,TGI,[6],> 100 µM
same,TGI,[7],> 100 µM
COc1ccc(/C=C2\CCC(CNc3ccc(Br)cc3)C2=O)cc1 (stereo not drawn),TGI,[10],> 100 µM
same,TGI,[1],> 100 µM
same,TGI,[2],> 100 µM
same,TGI,[3],> 100 µM
same,TGI,[4],> 100 µM
same,TGI,[5],> 100 µM
same,TGI,[7],> 100 µM
same,TGI,[8],> 100 µM
COC(=O)CC(NC(=O)OCc1ccccc1)C(C(=O)OCc1ccccc1)C1(C)OCCO1 (stereo not drawn),TGI,[10],> 100 µM
same,TGI,[2],> 100 µM
same,TGI,[3],> 100 µM
same,TGI,[4],> 100 µM
same,TGI,[5],> 100 µM
same,TGI,[6],43.8 µM
same,TGI,[7],> 100 µM
same,TGI,[8],> 100 µM
same,TGI,[9],73.2 µM
